Assay results from the NIST ThermoML archive (doi:10.1016/j.jct.2016.09.030).
Numbers after ± are expanded uncertainties.

Test: refractive index (Na D-line) (dimensionless); xn = mol fraction of the nth substance listed
Conditions: 100 kPa, Liquid, Standard Abbe refractometry

CCCCCCCC(=O)OCC [ethyl octanoate] + CC(C)CO
refractive index
Conditions | x1 = 0.1001 | x1 = 0.1999 | x1 = 0.3 | x1 = 0.4 | x1 = 0.5 | x1 = 0.5999 | x1 = 0.6999 | x1 = 0.7999 | x1 = 0.9 | x1 = 1
288.15 K | 1.4018 ± 0.0028 | 1.4052 ± 0.0028 | 1.408 ± 0.0028 | 1.4102 ± 0.0028 | 1.4123 ± 0.0028 | 1.4142 ± 0.0028 | 1.4158 ± 0.0028 | 1.4173 ± 0.0028 | 1.4186 ± 0.0028 | 1.4199 ± 0.0028
293.15 K | 1.3997 ± 0.0028 | 1.403 ± 0.0028 | 1.4058 ± 0.0028 | 1.408 ± 0.0028 | 1.4101 ± 0.0028 | 1.412 ± 0.0028 | 1.4136 ± 0.0028 | 1.4151 ± 0.0028 | 1.4164 ± 0.0028 | 1.4177 ± 0.0028
298.15 K | 1.3976 ± 0.0028 | 1.4009 ± 0.0028 | 1.4036 ± 0.0028 | 1.4058 ± 0.0028 | 1.4079 ± 0.0028 | 1.4097 ± 0.0028 | 1.4114 ± 0.0028 | 1.4128 ± 0.0028 | 1.4142 ± 0.0028 | 1.4155 ± 0.0028
303.15 K | 1.3955 ± 0.0028 | 1.3987 ± 0.0028 | 1.4014 ± 0.0028 | 1.4036 ± 0.0028 | 1.4056 ± 0.0028 | 1.4075 ± 0.0028 | 1.4091 ± 0.0028 | 1.4106 ± 0.0028 | 1.4119 ± 0.0028 | 1.4132 ± 0.0028
308.15 K | 1.3933 ± 0.0028 | 1.3965 ± 0.0028 | 1.3992 ± 0.0028 | 1.4014 ± 0.0028 | 1.4034 ± 0.0028 | 1.4052 ± 0.0028 | 1.4069 ± 0.0028 | 1.4084 ± 0.0028 | 1.4097 ± 0.0028 | 1.411 ± 0.0028
313.15 K | 1.3911 ± 0.0028 | 1.3942 ± 0.0028 | 1.3969 ± 0.0028 | 1.3991 ± 0.0028 | 1.4012 ± 0.0028 | 1.403 ± 0.0028 | 1.4046 ± 0.0028 | 1.4061 ± 0.0028 | 1.4075 ± 0.0028 | 1.4088 ± 0.0028
318.15 K | 1.3889 ± 0.0028 | 1.392 ± 0.0028 | 1.3947 ± 0.0028 | 1.3968 ± 0.0028 | 1.3989 ± 0.0028 | 1.4007 ± 0.0028 | 1.4024 ± 0.0028 | 1.4039 ± 0.0028 | 1.4052 ± 0.0028 | 1.4066 ± 0.0028
323.15 K | 1.3867 ± 0.0028 | 1.3898 ± 0.0028 | 1.3925 ± 0.0028 | 1.3946 ± 0.0028 | 1.3967 ± 0.0028 | 1.3985 ± 0.0028 | 1.4001 ± 0.0028 | 1.4017 ± 0.0028 | 1.403 ± 0.0028 | 1.4044 ± 0.0028

CCOC(=O)CCC(=O)OCC [diethyl butanedioate] + CC(C)CO
refractive index
Conditions | x1 = 0.0999 | x1 = 0.2 | x1 = 0.3001 | x1 = 0.4 | x1 = 0.4999 | x1 = 0.5999 | x1 = 0.6999 | x1 = 0.8 | x1 = 0.9 | x1 = 1
288.15 K | 1.4016 ± 0.0028 | 1.4047 ± 0.0028 | 1.4076 ± 0.0028 | 1.4103 ± 0.0028 | 1.4127 ± 0.0028 | 1.4148 ± 0.0028 | 1.4168 ± 0.0028 | 1.4186 ± 0.0028 | 1.4203 ± 0.0028 | 1.4217 ± 0.0028
293.15 K | 1.3995 ± 0.0028 | 1.4025 ± 0.0028 | 1.4055 ± 0.0028 | 1.4081 ± 0.0028 | 1.4105 ± 0.0028 | 1.4127 ± 0.0028 | 1.4146 ± 0.0028 | 1.4164 ± 0.0028 | 1.4181 ± 0.0028 | 1.4195 ± 0.0028
298.15 K | 1.3974 ± 0.0028 | 1.4004 ± 0.0028 | 1.4033 ± 0.0028 | 1.4059 ± 0.0028 | 1.4083 ± 0.0028 | 1.4104 ± 0.0028 | 1.4124 ± 0.0028 | 1.4142 ± 0.0028 | 1.4159 ± 0.0028 | 1.4173 ± 0.0028
303.15 K | 1.3952 ± 0.0028 | 1.3982 ± 0.0028 | 1.4011 ± 0.0028 | 1.4037 ± 0.0028 | 1.4061 ± 0.0028 | 1.4082 ± 0.0028 | 1.4102 ± 0.0028 | 1.412 ± 0.0028 | 1.4137 ± 0.0028 | 1.4151 ± 0.0028
308.15 K | 1.3929 ± 0.0028 | 1.396 ± 0.0028 | 1.3989 ± 0.0028 | 1.4015 ± 0.0028 | 1.4038 ± 0.0028 | 1.406 ± 0.0028 | 1.408 ± 0.0028 | 1.4098 ± 0.0028 | 1.4115 ± 0.0028 | 1.4129 ± 0.0028
313.15 K | 1.3908 ± 0.0028 | 1.3938 ± 0.0028 | 1.3966 ± 0.0028 | 1.3992 ± 0.0028 | 1.4016 ± 0.0028 | 1.4037 ± 0.0028 | 1.4058 ± 0.0028 | 1.4076 ± 0.0028 | 1.4093 ± 0.0028 | 1.4108 ± 0.0028
318.15 K | 1.3886 ± 0.0028 | 1.3916 ± 0.0028 | 1.3943 ± 0.0028 | 1.397 ± 0.0028 | 1.3993 ± 0.0028 | 1.4015 ± 0.0028 | 1.4036 ± 0.0028 | 1.4054 ± 0.0028 | 1.4071 ± 0.0028 | 1.4088 ± 0.0028
323.15 K | 1.3863 ± 0.0028 | 1.3894 ± 0.0028 | 1.3921 ± 0.0028 | 1.3947 ± 0.0028 | 1.3971 ± 0.0028 | 1.3993 ± 0.0028 | 1.4013 ± 0.0028 | 1.4032 ± 0.0028 | 1.405 ± 0.0028 | 1.4067 ± 0.0028

CCCCCCCC(=O)OCC [ethyl octanoate] + CC(C)CCO
refractive index
Conditions | x1 = 0.1 | x1 = 0.2001 | x1 = 0.3 | x1 = 0.4 | x1 = 0.5001 | x1 = 0.5999 | x1 = 0.7003 | x1 = 0.7998 | x1 = 0.9001 | x1 = 1
288.15 K | 1.4104 ± 0.0028 | 1.412 ± 0.0028 | 1.4134 ± 0.0028 | 1.4146 ± 0.0028 | 1.4156 ± 0.0028 | 1.4166 ± 0.0028 | 1.4175 ± 0.0028 | 1.4183 ± 0.0028 | 1.4191 ± 0.0028 | 1.4199 ± 0.0028
293.15 K | 1.4083 ± 0.0028 | 1.4099 ± 0.0028 | 1.4112 ± 0.0028 | 1.4124 ± 0.0028 | 1.4135 ± 0.0028 | 1.4144 ± 0.0028 | 1.4153 ± 0.0028 | 1.4161 ± 0.0028 | 1.4169 ± 0.0028 | 1.4177 ± 0.0028
298.15 K | 1.4063 ± 0.0028 | 1.4078 ± 0.0028 | 1.4091 ± 0.0028 | 1.4102 ± 0.0028 | 1.4113 ± 0.0028 | 1.4122 ± 0.0028 | 1.4131 ± 0.0028 | 1.4139 ± 0.0028 | 1.4147 ± 0.0028 | 1.4155 ± 0.0028
303.15 K | 1.4042 ± 0.0028 | 1.4056 ± 0.0028 | 1.4069 ± 0.0028 | 1.4081 ± 0.0028 | 1.4091 ± 0.0028 | 1.41 ± 0.0028 | 1.4109 ± 0.0028 | 1.4116 ± 0.0028 | 1.4125 ± 0.0028 | 1.4132 ± 0.0028
308.15 K | 1.4021 ± 0.0028 | 1.4035 ± 0.0028 | 1.4047 ± 0.0028 | 1.4059 ± 0.0028 | 1.4069 ± 0.0028 | 1.4078 ± 0.0028 | 1.4087 ± 0.0028 | 1.4094 ± 0.0028 | 1.4102 ± 0.0028 | 1.411 ± 0.0028
313.15 K | 1.3999 ± 0.0028 | 1.4013 ± 0.0028 | 1.4026 ± 0.0028 | 1.4037 ± 0.0028 | 1.4047 ± 0.0028 | 1.4056 ± 0.0028 | 1.4064 ± 0.0028 | 1.4072 ± 0.0028 | 1.408 ± 0.0028 | 1.4088 ± 0.0028
318.15 K | 1.3978 ± 0.0028 | 1.3992 ± 0.0028 | 1.4004 ± 0.0028 | 1.4015 ± 0.0028 | 1.4024 ± 0.0028 | 1.4034 ± 0.0028 | 1.4042 ± 0.0028 | 1.405 ± 0.0028 | 1.4058 ± 0.0028 | 1.4066 ± 0.0028
323.15 K | 1.3957 ± 0.0028 | 1.397 ± 0.0028 | 1.3982 ± 0.0028 | 1.3993 ± 0.0028 | 1.4003 ± 0.0028 | 1.4012 ± 0.0028 | 1.402 ± 0.0028 | 1.4027 ± 0.0028 | 1.4036 ± 0.0028 | 1.4044 ± 0.0028

CCOC(=O)CCC(=O)OCC [diethyl butanedioate] + CC(C)CCO
refractive index
Conditions | x1 = 0.1 | x1 = 0.2 | x1 = 0.3 | x1 = 0.3999 | x1 = 0.5 | x1 = 0.5999 | x1 = 0.7 | x1 = 0.7999 | x1 = 0.9002 | x1 = 1
288.15 K | 1.41 ± 0.0028 | 1.4114 ± 0.0028 | 1.4129 ± 0.0028 | 1.4144 ± 0.0028 | 1.4158 ± 0.0028 | 1.4172 ± 0.0028 | 1.4184 ± 0.0028 | 1.4197 ± 0.0028 | 1.4208 ± 0.0028 | 1.4217 ± 0.0028
293.15 K | 1.4079 ± 0.0028 | 1.4093 ± 0.0028 | 1.4108 ± 0.0028 | 1.4123 ± 0.0028 | 1.4136 ± 0.0028 | 1.415 ± 0.0028 | 1.4163 ± 0.0028 | 1.4175 ± 0.0028 | 1.4186 ± 0.0028 | 1.4195 ± 0.0028
298.15 K | 1.4058 ± 0.0028 | 1.4072 ± 0.0028 | 1.4087 ± 0.0028 | 1.4101 ± 0.0028 | 1.4115 ± 0.0028 | 1.4128 ± 0.0028 | 1.414 ± 0.0028 | 1.4153 ± 0.0028 | 1.4164 ± 0.0028 | 1.4173 ± 0.0028
303.15 K | 1.4037 ± 0.0028 | 1.4051 ± 0.0028 | 1.4065 ± 0.0028 | 1.4079 ± 0.0028 | 1.4093 ± 0.0028 | 1.4106 ± 0.0028 | 1.4119 ± 0.0028 | 1.4131 ± 0.0028 | 1.4142 ± 0.0028 | 1.4151 ± 0.0028
308.15 K | 1.4016 ± 0.0028 | 1.4029 ± 0.0028 | 1.4043 ± 0.0028 | 1.4057 ± 0.0028 | 1.4071 ± 0.0028 | 1.4084 ± 0.0028 | 1.4096 ± 0.0028 | 1.4108 ± 0.0028 | 1.412 ± 0.0028 | 1.4129 ± 0.0028
313.15 K | 1.3996 ± 0.0028 | 1.4008 ± 0.0028 | 1.4022 ± 0.0028 | 1.4036 ± 0.0028 | 1.4049 ± 0.0028 | 1.4062 ± 0.0028 | 1.4075 ± 0.0028 | 1.4087 ± 0.0028 | 1.4098 ± 0.0028 | 1.4108 ± 0.0028
318.15 K | 1.3975 ± 0.0028 | 1.3988 ± 0.0028 | 1.4001 ± 0.0028 | 1.4014 ± 0.0028 | 1.4028 ± 0.0028 | 1.4041 ± 0.0028 | 1.4054 ± 0.0028 | 1.4066 ± 0.0028 | 1.4077 ± 0.0028 | 1.4088 ± 0.0028
323.15 K | 1.3954 ± 0.0028 | 1.3966 ± 0.0028 | 1.398 ± 0.0028 | 1.3993 ± 0.0028 | 1.4006 ± 0.0028 | 1.4019 ± 0.0028 | 1.4032 ± 0.0028 | 1.4045 ± 0.0028 | 1.4056 ± 0.0028 | 1.4067 ± 0.0028
